Like-named read-outs stand apart in the source and are kept apart here.
Experiments:
Assay type in all cases: cell-based, human
[1] = tested on: HGSOC cells; experiment: CyQuant cell viability assay, HGSOC cells (CAOV3 and OVCAR4), summary in words; settings: summary of Table 3
Experimental: (§1) Cells were seeded into 96-well plates and treated with serial dilutions with the designated compounds for 72 h. Medium was then removed from the wells, and the cells were frozen at -80 °C for storage. After thawing, cell viability was analyzed using the CyQUANT™ Cell Proliferation Assay for cells in culture (Invitrogen, ThermoFisher Scientific, Waltham, MA, USA), according to manufacturer’s instructions. The CyQuant assay utilizes a DNA binding fluorescent dye, and the signal is proportional to the number of live cells, which thus reflects the effect of drug treatment on both cell proliferation and cytotoxicity. To integrate these two measures (proliferation and cytotoxicity) into one simple term, we refer to CyQuant data as a measure of cell viability. Fluorescence intensity was measured using POLARstar OPTIMA microplate multi-detection plate reader (BMG LabTech, Cary, NC, USA) with settings specified by the manufacturer’s instructions.
We investigated the effect of eight previously reported FOXM1 inhibitors on HGSOC cell viability. We utilized CAOV3 and OVCAR4 cells, which are validated to model HGSOC both in vitro and in vivo [38, 39], and measured the effect on cell viability using CyQuant assays. The data are summarized in Table 3 (drugs ordered alphabetically).

[2] = tested on: OVCAR4 cells; experiment: CyQuant cell viability assay, OVCAR4; settings: for Efficacy: % loss of cell viability at maximum tested concentration
Experimental: as §1

[3] = tested on: CAOV3 cells; experiment: CyQuant cell viability assay, CAOV3; settings: for Efficacy: % loss of cell viability at maximum tested concentration
Experimental: as §1

[4] = tested on: FT282-C11 cells; experiment: CyQuant cell viability assay, FT282-C11 (immortalized FTE control); settings: for Efficacy: % loss of cell viability at maximum tested concentration; for Fold HGSOC cell selectivity: IC50 in FT282-C11 divided by the averaged IC50 values of CAOV3 and OVCAR4 cells
Experimental: as §1
To investigate the cancer cell selectivity of FOXM1 inhibitors, we utilized the immortalized (FTE) cell line FT282-C11 as non-malignant, cell of origin matched control. […] We tested a sub-set of FOXM1 inhibitors, including the three NB compounds and the two most widely used FOXM1 inhibitors, thiostrepton and FDI-6.

[5] = tested on: CAOV3 cells; experiment: Caspase-3/7 activity assay, CAOV3; settings: 24 h
Experimental: (§2) Cells were seeded into 6-well plates and treated with the designated compounds until the desired time point. Floating cells and trypsinized cells from the wells were collected, centrifuged at 500 × g, and washed with PBS. Cells were prepared using the Muse® Caspase-3/7 Kit (Luminex Corporation, Austin, TX, USA) according to the manufacturer’s instructions. Cells were analyzed by flow cytometry using the Guava® Muse® Cell Analyzer (Luminex Corporation).

[6] = tested on: CAOV3 cells; experiment: Incucyte kinetic analysis of live and dead cells; settings: 0.1 μM
Experimental: CAOV3 cells were seeded into 96-well plates in DMEM media containing Incucyte Nuclight Rapid Red Dye (Sartorius, Bohemia, NY, USA, Cat #4717) 1:1,000 (for live cell nuclear labeling) and Incucyte Cytotox Green Dye (Sartorius Cat #4633) 250 μM (for counting of dead cells). The following day, cells were treated with DMSO or NB compounds at 0.1, 0.5 or 1.0 μM concentrations. After treatment, cells were incubated in a Incucyte S3 time lapse imager (Sartorius). We obtained 5 pictures per well every 2 h, for a total of 72 h. Data were analyzed and plotted using Incucyte Live-cell Imaging and Analysis software.

[7] = tested on: FT282-C11 cells; experiment: Caspase-3/7 activity assay, FT282-C11; settings: 24 h
Experimental: as §2

[8] = tested on: FOXM1 targets (CCNB1, PLK1, AURKB, CDC25B); experiment: Western blot of FOXM1 target proteins in HGSOC cells; settings: CAOV3 and OVCAR4; low micromolar treatments
Experimental: Whole cell proteins were extracted using radio-immunoprecipitation assay (RIPA) buffer (1X PBS, 1% NP-40, 0.5% sodium deoxycholate, 0.1% sodium dodecyl sulfate [SDS]) supplemented with protease and phosphatase inhibitors (Sigma-Aldrich). Briefly, media was removed from cells, cells were washed in ice cold PBS, and cells were lysed for 15 min in RIPA buffer, collected from the plate, and sonicated. The resulting extracts were centrifuged at 4 °C for 10 min at 16,100 × g to remove cell debris. In some cases (e.g., when measuring apoptotic markers such as cleaved PARP) floating cells were isolated in parallel and combined with the remainder of the cell sample prior to protein extraction. Protein concentrations were determined using the Pierce™ BCA Protein Assay Kit (Fisher Scientific, Waltham, MA, USA).
Equivalent amounts of protein per well, as determined by BCA assays, were loaded into Invitrogen™ NuPAGE™ 4–12%, Bis–Tris, 1.5 mm, mini protein gels (Fisher Scientific) or 7.5% Mini-Protein TGX precast protein gels (Bio-Rad, Hercules, CA, USA), and subsequently transferred to 0.45 µm polyvinylidene difluoride (PVDF) membranes (Millipore Sigma, St. Louis, MO, USA), using a wet transfer system. […] Quantification of protein expression was performed using Fiji software.

[9] = tested on: CAOV3 cells; experiment: Drug washout study, CyQuant cell viability; settings: Fig. 7E-F
Experimental: as §1
To assess FOXM1 protein expression, cells were seeded into 6-well plates and treated with DMSO or NB compounds the next day. At 3- or 6-h post-treatment, media was aspirated and cells were washed with PBS and incubated with drug-free media until reaching 24, 48, or 72 h post the initial treatment. At time points post-treatment, protein was isolated from washout and no washout (i.e., continuous treatment) treatment conditions and used for western blotting. To assess the effects of drug washout on cell viability, cells were seeded in 96-well plates, treated as described above, and cell viability was assessed at 72 h post the initial treatment using CyQuant assays.

[10] = tested on: OVCAR4 cells; experiment: Caspase-3/7 activity assay, OVCAR4; settings: 24 h
Experimental: as §2

[11] = OVCAR4, % loss of cell viability at the maximum tested drug concentration (printed in parentheses in the cell), Table 3
[12] = OVCAR4, CyQuant, Table 4, read-out: IC50
[13] = OVCAR4, cell viability, CyQuant, 72 h, Table 3, read-out: Potency [IC50 (µM)]
[14] = CAOV3, % loss of cell viability at the maximum tested drug concentration (printed in parentheses in the cell), Table 3
[15] = CAOV3, CyQuant, Table 4, read-out: IC50
[16] = CAOV3, cell viability, CyQuant, 72 h, Table 3, read-out: Potency [IC50 (µM)]
[17] = FT282-C11, CyQuant, Table 4, read-out: IC50
[18] = Homo sapiens, OVCAR-4, 72 h, read-out: Potency [IC50 (µM)]
[19] = Homo sapiens, OVCAR-4, read-out: % Efficacy (maximum dose)
[20] = Homo sapiens, Caov-3, 72 h, read-out: Potency [IC50 (µM)]
[21] = Homo sapiens, Caov-3, read-out: % Efficacy (maximum dose)

SMILES | potency and efficacy on HGSOC cell viability, in words [1] | Efficacy ([2]; OVCAR4, Table 4) [%] | % Efficacy (maximum dose) [2, 11] | IC50 [2, 12] [µM] | IC50 [2, 13] [µM] | Efficacy ([3]; CAOV3, Table 4) [%] | % Efficacy (maximum dose) [3, 14] | IC50 [3, 15] [µM] | IC50 [3, 16] [µM] | Efficacy ([4]; FT282-C11, Table 4) [%] | IC50 [4, 17] [nM] | Fold HGSOC cell selectivity [4] | IC50 [2, 18] [µM] | Emax [2, 19] [%] | IC50 [3, 20] [µM] | Emax [3, 21] [%] | further results
Nc1c(C(=O)Nc2ccc(F)cc2)sc2nc(-c3cccs3)cc(C(F)(F)F)c12 [FDI-6] | low potency | 61 | 61% (20 μM) | 4.7 | 4.7 | 61 | 61% (20 μM) | 9.1 | 9.1 | 76 | 11000 | 1.6 | – | – | – | – | –
C=C(NC(=O)C(=C)NC(=O)c1csc(C2=N[C@@H]3c4csc(n4)[C@H]4NC(=O)c5csc(n5)[C@H]([C@](C)(O)[C@@H](C)O)NC(=O)[C@H]5CSC(=N5)/C(=C/C)NC(=O)[C@H]([C@@H](C)O)NC(=O)c5csc(n5)[C@]3(CC2)NC(=O)[C@H](C)NC(=O)C(=C)NC(=O)[C@H](C)NC(=O)[C@H]([C@@H](C)CC)N[C@@H]2C=Cc3c([C@H](C)O)cc(nc3[C@H]2O)C(=O)O[C@@H]4C)n1)C(N)=O [Thiostrepton] | high potency and efficacy | 99 | – | – | – | 93 | – | – | – | 100 | – | 0.91 | 0.98 | 99 | 0.62 | 93 | IC50 ([2]; Homo sapiens, OVCAR-4): 0.98 µM; IC50 ([3]; Homo sapiens, Caov-3): 0.62 µM; IC50 ([4]; Homo sapiens): 730 nM
CC[N+](C)(CC)CCCCCCOc1ccc(C(c2ccc(OCCCCCC[N+](C)(CC)CC)cc2)=C2C3C[C@H]4C[C@@H](C3)C[C@H]2C4)cc1 [NB-115] | – | 85 | 85% (10 μM) | 0.56 | 0.56 | 100 | 100% (10 μM) | 0.49 | 0.49 | 100 | 3800 | 7.2 | – | – | – | – | caspase 3/7 activity [5]: robust increase in caspase 3/7 activity; cell proliferation compared to the DMSO control [6]: increased proliferation; caspase 3/7 activity [7]: but not in FT282-C11 cells; FOXM1 targets at the protein level [8]: suppressed FOXM1 targets at the protein level; selectivity for HGSOC cells ([4]; HGSOC cells vs FT282-C11, summary of Table 4): approximately tenfold; IC50 ([9]; continuous drug exposure 72 h, viability at 72 h, read-out: IC50 (CAOV3), no washout (72h)): 830 nM; IC50 ([9]; washout after 3 h, viability at 72 h post initial treatment, read-out: IC50 (CAOV3), 3 h drug exposure then washout (3h)): 2150 nM; IC50 ([9]; washout after 6 h, viability at 72 h post initial treatment, read-out: IC50 (CAOV3), 6 h drug exposure then washout (6h)): 2300 nM; caspase 3/7 activity [10]: robust increase in caspase 3/7 activity
CC[C@@]1([C@@H]2O[C@@H]([C@H]3O[C@@](O)(CO)[C@H](C)C[C@@H]3C)C[C@@H]2C)CC[C@H]([C@]2(C)CC[C@]3(C[C@H](O)[C@@H](C)[C@@H]([C@@H](C)[C@@H](OC)[C@H](C)C(=O)O)O3)O2)O1 [Monensin, monensin] | high potency but low efficacy in one cell line (OVCAR4) | – | – | – | – | – | – | – | – | – | – | – | – | – | – | – | Emax ([2]; Homo sapiens, OVCAR-4, OVCAR4, % loss of cell viability at the maximum tested drug concentration (printed in parentheses in the cell), Table 3, read-out: % Efficacy (maximum dose)): 52%; IC50 ([2]; Homo sapiens, OVCAR-4, OVCAR4, cell viability, CyQuant, 72 h, Table 3, read-out: Potency [IC50 (µM)]): 0.024 µM; Emax ([3]; Homo sapiens, Caov-3, CAOV3, % loss of cell viability at the maximum tested drug concentration (printed in parentheses in the cell), Table 3, read-out: % Efficacy (maximum dose)): 100%; IC50 ([3]; Homo sapiens, Caov-3, CAOV3, cell viability, CyQuant, 72 h, Table 3, read-out: Potency [IC50 (µM)]): 0.1 µM
c1ccc(Nc2cc3ccccc3c3ccccc23)cc1 [N-phenylphenanthren-9-amine (NP9), N-phenylphenanthren-9-amine] | low potency | – | – | – | – | – | – | – | – | – | – | – | 39 | 100 | 23 | 85 | –

Source: publication PMC11069232, “NB compounds are potent and efficacious FOXM1 inhibitors in high-grade serous ovarian cancer cells” (Journal of Ovarian Research, 2024)
